Measurements published in paper PMC10955127 (Frontiers in Pharmacology, 2024).
Where two headings read alike, the source gives them in different places.

Key:
androgen receptor [1] = tested on: androgen receptor; set-up: method as in ToxCast database; settings: ref ToxCast database; cited from earlier work
estrogen receptor [2] = tested on: estrogen receptor; set-up: method as in ToxCast database; settings: ref ToxCast database, cited from earlier work
androgen receptor (AR) = tested on: androgen receptor (AR); set-up: method as in ToxCast; settings: ref ToxCast, cited from earlier work
androgen receptor [3] = tested on: androgen receptor; set-up: method as in ToxCast database; settings: ref ToxCast database; cited from earlier work; remark: listed apart in the source
estrogen receptor [4] = tested on: estrogen receptor; set-up: method as in ToxCast database; settings: ref ToxCast database, cited from earlier work; remark: listed apart in the source
thyroid pathway [5] = tested on: thyroid pathway; set-up: method as in ToxCast database; settings: ref ToxCast database; cited from earlier work
in vitro = in vitro ADME
Method: […]. Samples were precipitated with an equal volume of acetonitrile containing internal standards (1 μM diazepam, 1 μM griseofulvin, 10 μM diclofenac) and then centrifuged (4800 x g, room temperature, 5 min) before analysis by UHPLC-MS/HRMS.
The amount of compound in the samples was expressed as percentage of remaining compound compared to time point zero (=100%). These percentages were plotted against the corresponding time points. In vitro intrinsic clearance (CLint) and half-life (t1/2) estimates were determined using the rate of precursor disappearance and following formula, based on the well-stirred liver model (Obach 1999):
t1/2 = half-life [min]; k = slope from the linear regression of log [test compound] versus time plot [1/min]
Where CLint = in vitro intrinsic clearance [μl/min/10^6 cells]; t1/2 = half-life [min]; k = slope of the linear regression of log [test compound] versus time plot [1/min]; V = ratio of incubation volume and cell number and fu = unbound fraction in the blood. […]

thyroid pathway [6] = tested on: thyroid pathway; set-up: method as in ToxCast database; settings: ref ToxCast database; cited from earlier work; remark: listed apart in the source
TSHR = tested on: TSHR; set-up: method as in ToxCast database; settings: ref ToxCast database; cited from earlier work
[7] = ref PubChem or the ECHA database; cited from earlier work
androgen receptor [8] = tested on: androgen receptor; set-up: method as in ToxCast database; settings: ref ToxCast database; cited from earlier work; remark: listed apart in the source
androgen receptor [9] = tested on: androgen receptor; set-up: method as in ToxCast database; settings: ref ToxCast database; cited from earlier work; remark: listed apart in the source
Aromatase = tested on: Aromatase; set-up: method as in ToxCast database; settings: ref ToxCast database; cited from earlier work
estrogen receptor (ER) = settings: cited from earlier work; for Estrogen: Experimental Data (call): Tier 0; for Estrogen: Experimental Data (call) / Estrogen: assays active / assays: ref ToxCast
estrogen receptor [10] = tested on: estrogen receptor; set-up: method as in ToxCast database; settings: ref ToxCast database; cited from earlier work
thyroid pathway [11] = tested on: thyroid pathway; set-up: method as in ToxCast database; settings: ref ToxCast database; cited from earlier work; remark: listed apart in the source
mice = settings: KS2; cited from earlier work
[12] = tested on: Thyroid (TR and TPO only); set-up: method as in ToxCast; settings: ref ToxCast, cited from earlier work; for Thyroid (TR and TPO only): Experimental Data (call): Tier 0
[13] = In vitro skin penetration and metabolism, fresh viable pig skin on static Franz cells
Text: Fresh viable pig skin (without hot steam treatment, by-product from meat industry) was obtained from a local, commercial butcher (Hammoor, Germany). The back skin was from female pigs (bred from “Dänische Landrasse” (female) and Pietrain (male) pigs, ~130 days old, 100 kg body weight). Pig skin samples were gently dry-shaved and washed with water before use. For the experiment, 2 replicate discs from each of 3 donors were used.
Skin of full-thickness was mounted on static Franz cells with a 4.9 cm² application area. The receptor compartment of the diffusion cell was filled with approx. 5 ml RF (1% BSA, 0.9% NaCl, 0.05% gentamycin sulfate in water), above a magnetic stirrer set to low rotation. […] The experiment was conducted using non-occluded conditions.
The dermal absorption was calculated as the total amount present within epidermis (without the amount in the total SC strips), dermis and RF.

estrogen receptor [14] = tested on: estrogen receptor; set-up: method as in ToxCast database; settings: ref ToxCast database, cited from earlier work; remark: listed apart in the source
H295R cell line [15] = tested on: H295R cell line; set-up: method as in ToxCast database; settings: ref ToxCast database, cited from earlier work
[16] = set-up: method as in SCCS, 2023a; settings: frozen human skin, 14C-radio-labelled BSal in a formulation at 0.5%; ref SCCS, 2023a; cited from earlier work
H295R cell line [17] = tested on: H295R cell line; set-up: method as in ToxCast database; settings: ref ToxCast database, cited from earlier work; remark: listed apart in the source
in vivo = settings: human
[18] = ref PubChem or the ECHA database; cited from earlier work; remark: listed apart in the source
[19] = at 35°C; ref PubChem or the ECHA database; cited from earlier work
[20] = Fraction unbound in the plasma (Fup); settings: human
[21] = set-up: method as in PubChem or the ECHA database; settings: at 25°C; ref PubChem or the ECHA database; cited from earlier work
THRa = tested on: THRa; set-up: method as in ToxCast database; settings: ref ToxCast database; cited from earlier work
H295R cell line [22] = tested on: H295R cell line; set-up: method as in ToxCast database; settings: ref ToxCast database, cited from earlier work; remark: listed apart in the source
[23] = 24.14 mg/kg/day product, 0.5% BSal, 10.5% absorption
estrogen receptor [24] = tested on: estrogen receptor; set-up: method as in ToxCast database; settings: ref ToxCast database, cited from earlier work; remark: listed apart in the source
[25] = set-up: method as in ToxCast database; settings: ref ToxCast database; cited from earlier work
MCF-7 cells = assay type: cell-based; settings: 1,000 µM SA or 1 μM trichostatin A, analysis Method 1

OCc1ccccc1 [BAlc, benzyl alcohol]
Androgen pathway mRNA induction: Call (androgen receptor [1]): Negative | Estrogen pathway Dimerisation: Call (estrogen receptor [2]): Negative | Androgen: Experimental Data (call) (androgen receptor (AR); Tier 0): Negative | Androgen: assays active / assays (androgen receptor (AR)): 0/14 active | Androgen pathway Reporter protein Agonist: Call (androgen receptor [3]): Negative | Estrogen pathway Reporter protein Agonist: Call (estrogen receptor [4]): Negative | Thyroid pathway Reporter protein Agonist: Call (thyroid pathway [5]): Negative | Time within which rapidly metabolized in PHH (in vitro; both, human, hepatocytes, 5 µM): ≤ 30 min | Thyroid pathway Reporter protein Antagonist: Call (thyroid pathway [6]): Negative | Thyroid pathway Regulation of transcription factor activity (TSHR): Call (TSHR): Negative | Vapor pressure [7]: 7 Pa | Androgen pathway Dimerisation: Call (androgen receptor [8]): Negative | Androgen pathway Reporter protein Antagonist: Call (androgen receptor [9]): Negative | Steroidogenesis Aromatase: Call (Aromatase): Negative | Estrogen: Experimental Data (call) (estrogen receptor (ER)): Negative | Estrogen: assays active / assays (estrogen receptor (ER)): 0/18 active | Estrogen pathway Reporter protein Antagonist: Call (estrogen receptor [10]): Negative | Thyroid pathway mRNA induction: Call (thyroid pathway [11]): Negative | Developmental Toxicity NOAEL (mice): NOAEL: 200 mg/kg | Thyroid (TR and TPO only): Experimental Data (call) [12]: Negative | Thyroid (TR and TPO only): assays active / assays [12]: 0/12 active | Stratum corneum [13]: < LOQ* | Surface [13]: < LOQ* | Estrogen pathway mRNA induction: Call (estrogen receptor [14]): Negative

O=C(OCc1ccccc1)c1ccccc1O [BSal, benzyl salicylate]
Steroidogenesis 17alpha-hydroxyprogesterone in H295R cell line: call (H295R cell line [15]): Positive | AC50 (H295R cell line [15]; read-out: Steroidogenesis 17alpha-hydroxyprogesterone in H295R cell line: AC50): 54.7 µM | Estrogen pathway Dimerisation: Call (estrogen receptor [2]): Positive | AC50 (estrogen receptor [2]; read-out: Estrogen pathway Dimerisation: AC50): 36.5 µM | Skin absorption [16]: 9.01 % of the applied dose | Steroidogenesis Corticosterone in H295R cell line: call (H295R cell line [17]): Positive | AC50 (H295R cell line [17]; read-out: Steroidogenesis Corticosterone in H295R cell line: AC50): 36.8 µM | NOAEL (in vivo): 123 mg/kg/day | Estrogen pathway Reporter protein Agonist: Call (estrogen receptor [4]): Positive | AC50 (estrogen receptor [4]; read-out: Estrogen pathway Reporter protein Agonist: AC50): 39.2 µM | Thyroid pathway Reporter protein Agonist: Call (thyroid pathway [5]): Negative | Initial concentration detected (in vitro; after 90, 120, and 240 min): 0.1%–0.2% | Initial concentration remaining (in vitro; after 30 min, 20 µM BSal): 10% | half-life at 20 µM (in vitro; both sexes, human, hepatocytes, 20 µM, 0.8 million cells/ml, read-out: Half-life in PHH): 9.2 min | hepatocyte CLint at 20 µM (in vitro; both sexes, human, hepatocytes, PHH, read-out: In vitro intrinsic clearance (CLint, in vitro)): 94.2 µL/min/1e6 cells | Thyroid pathway Reporter protein Antagonist: Call (thyroid pathway [6]): Negative | Thyroid pathway Regulation of transcription factor activity (TSHR): Call (TSHR): Negative | Vapor pressure [7]: 0.01 Pa | Water solubility [18]: 8800 µg/mL | Partition coefficient (Log Pow) [19]: 4 | fraction unbound [20]: 0.0066 | pKa [21]: 9.82 | Steroidogenesis Aromatase: Call (Aromatase): Negative | Thyroid pathway receptor binding (THRa): Call (THRa): Negative | Estrogen: Experimental Data (call) (estrogen receptor (ER)): Positive | AC50 (estrogen receptor (ER); binding assay for ERα, assay name OT_ER_ERaERa_0480, ref ToxCast database, read-out: Lowest reported AC50): 36.5 µM | Estrogen: assays active / assays (estrogen receptor (ER)): 9 out of 18 | Estrogen: assays active / assays (estrogen receptor (ER); listed as Benzyl salicylate): 9/18 assays active | Estrogen pathway Reporter protein Antagonist: Call (estrogen receptor [10]): Negative | Thyroid pathway mRNA induction: Call (thyroid pathway [11]): Negative | Steroidogenesis Progesterone in H295R cell line: call (H295R cell line [22]): Positive | AC50 (H295R cell line [22]; read-out: Steroidogenesis Progesterone in H295R cell line: AC50): 43.7 µM | Thyroid (TR and TPO only): Experimental Data (call) [12]: Negative | Thyroid (TR and TPO only): assays active / assays [12]: 0/11 active | Receptor fluid [13]: < LOQ* | SED total [23]: 24.14 × 0.5/100 × 10.5/100 = 0.01267 mg/kg/d | Estrogen pathway mRNA induction: Call (estrogen receptor [14]): Positive | AC50 (estrogen receptor [14]; read-out: Estrogen pathway mRNA induction: AC50): 37 µM | Estrogen pathway Cell Proliferation: Call (estrogen receptor [24]): Positive | AC50 (estrogen receptor [24]; read-out: Estrogen pathway Cell Proliferation: AC50): 85.2 µM

O=Cc1ccccc1 [Benzaldehyde, benzaldehyde]
Total recovery ([13]; 24 h after application of 0.5% BSal in formulation, SA corrected by the amount of SA present in the formulation): < LOQ*

O=C(O)CNC(=O)c1ccccc1 [Hippuric acid, hippuric acid]
Thyroid pathway Reporter protein Agonist: Call (thyroid pathway [5]): Negative | Thyroid pathway Reporter protein Antagonist: Call (thyroid pathway [6]): Negative | Steroidogenesis Aromatase: Call (Aromatase): Negative | Result in all 259 ToxCast assays [25]: SA: alerts for developmental toxicity, reproductive toxicity, nephrotoxicity, hepatotoxicity, Hippuric acid: negative in all 259 ToxCast assays | Receptor fluid [13]: < LOQ* | Surface [13]: < LOQ*

CC(/C=C/C(=O)NO)=C\[C@@H](C)C(=O)c1ccc(N(C)C)cc1 [trichostatin A, Trichostatin A]
Number of genes altered by > 1.5-fold or < -1.5-fold (MCF-7 cells; 6 h): ~10,000 genes | Number of genes altered by > 1.5-fold or < -1.5-fold (MCF-7 cells; 24 h): ~10,000 genes
